Measured values as given in ChEMBL document CHEMBL3272018, “Synthesis of aziridinylallylaminophosphine oxides and sulfides as potential adjuvant cancer chemotherapeutic agents” (J Med Chem, 1976).

What was measured:
[1] = Antitumor activity against rat Lewis-Lymphoma 8 cells allografted in Lewis-Wistar rat assessed as tumor regression at 20 mg/kg, ip administered for 2 weeks measured for 9 to 10 months relative to control; format: functional; settings: route intraperitoneal
Musca domestica [2] = assay: Toxicity in male house fly assessed as lowest dose required to cause complete sterility administered in food; format: organism-based; settings: in vivo, po
Musca domestica [3] = assay: Toxicity in male house fly assessed as lowest dose required to cause complete sterility administered in sugar; format: organism-based; settings: in vivo, po

| Compound | Activity [1] | Activity (Musca domestica [2]) | Activity (Musca domestica [3]) |
| --- | --- | --- | --- |
| C=CCN(CC=C)C(CN1CC1)C(N)=O (stereo not drawn) | 100% | – | – |
| C=CCN(C1=CCCCC1)P(=O)(N1CC1)N1CC1 | – | 1% | 1% |
